From patent US6432987B1, “Substituted N-benzylindol-3-ylglyoxylic acid derivatives having antitumor action” (Zentaris AG, priority 1999, dated 2002)

System: tubulin
Test: tubulin polymerization assay
Type: biochemical
Details: result in words only
From the text: It was possible to show the activity of the present compounds in a tubulin polymerization assay.

Nc1ccc(Cn2cc(C(=O)C(=O)Nc3ccncc3)c3ccccc32)cc1 [Example D-68838, N-(Pyridin-4-yl)-[1-(4-aminobenzyl)indol-3-yl]glyoxyl-amide]
inhibition of the polymerization of tubulin: inhibits the polymerization of tubulin
